Reference: PMC6256357 (Chemical Science, 2018)

Target: sirtuin 2 (SIRT2) (Homo sapiens, UniProt Q8IXJ6)
Test: trypsin-coupled fluorescence-based deacetylase assay
Assay type: biochemical

Sequence of sirtuin 2 (SIRT2) (Q8IXJ6 2-389): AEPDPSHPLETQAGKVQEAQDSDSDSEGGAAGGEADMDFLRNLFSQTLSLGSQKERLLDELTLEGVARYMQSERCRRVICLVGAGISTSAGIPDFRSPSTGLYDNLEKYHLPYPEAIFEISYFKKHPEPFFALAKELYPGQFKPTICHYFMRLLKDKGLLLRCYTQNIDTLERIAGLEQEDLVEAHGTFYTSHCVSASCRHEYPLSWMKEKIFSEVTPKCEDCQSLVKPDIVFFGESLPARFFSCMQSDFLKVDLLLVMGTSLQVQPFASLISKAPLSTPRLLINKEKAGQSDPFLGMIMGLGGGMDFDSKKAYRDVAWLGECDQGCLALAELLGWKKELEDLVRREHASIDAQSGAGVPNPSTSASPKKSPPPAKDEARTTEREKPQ

NC(=O)c1ccc[n+]([C@@H]2O[C@H](COP(=O)([O-])OP(=O)(O)OC[C@H]3O[C@@H](n4cnc5c(N)ncnc54)[C@H](O)[C@@H]3O)[C@@H](O)[C@H]2O)c1 [NAD^+]
trypsin-coupled fluorescence-based deacetylase assay: in contrast to NAD^+ that could participate in SIRT2-catalyzed protein deacetylation
